The text below walks through data of US20250161255A1, “NEW THERAPY AND PREVENTION FOR SUPPRESSING AGING-RELATED DISORDERS INCLUDING SARCOPENIA” (priority 2022, published 2025).

Structures can show the parent of a compound that is named as a salt.

In data set [1] the test system is model mice (C57BL/6J). Description: Frailty index test. It counts as in vivo, mouse. How it is done:
The above model mice were orally administered 1000 mg/kg/day of ambroxol hydrochloride from 50 to 81 weeks of age, and frailty associated with aging was confirmed by means of a frailty index test. The evaluated items of the frailty index test are as follows, and an evaluation standard in accordance with clinical symptoms (0=no symptoms, 0.5=mild symptoms, 1=severe symptoms) was employed. • Hair, skin • Alopecia Whether there is hair loss • Loss of fur color Change in fur color from black to gray, brown, or white • Dermatitis Whether there is skin inflammation • Loss of whiskers Loss of hair and whiskers around nose • Coat condition Condition of coat, smoothness and shine of fur • Physical/musculoskeletal • Tumors Presence/absence of tumor • Distended abdomen Abdomen enlarged compared to surrounding • Kyphosis Check by stroking back • Tail stiffening Whether tail wraps freely when stroked, stiffness • Gait disorder Difficulty in walking, wide stance • Tremor Whether there are age-related tremors • Forelimb grip strength Strength of grip on wire mesh when pulled by the tail • Body condition score Check visual signs of bony protuberance, muscle wasting, obesity • Vestibulocochlear/auditory • Vestibular disturbance Balance, orientation, acceleration • Hearing loss Whether there is response when clicker is sounded from behind • Ocular/nasal • Cataracts Clouding of lens of eye • Corneal opacity Cloudy cornea • Eye discharge/swelling Eyes swollen, abnormal secretions or crusting • Microphthalmia One or both eyes are small and/or sunken • Vision loss Whether the mouse reaches toward the ground when lowered by the tail (also use a ruler) • Menace reflex Whether there is response when foreign object is brought near eyes • Nasal discharge Whether there is nasal discharge • Digestive/urogenital • Malocclusion Whether there are malocclusions or overgrown teeth • Rectal prolapse Whether there is protrusion of rectum • Vaginal/uterine/penile prolapse Check genitals • Diarrhea Check cage bedding • Respiratory • Breathing rate/depth Check for dyspnea, breath sounds (rales), tachypnea, • Discomfort • Mouse Grimace Scale Assess nose bulge, cheek bulge, ear angle, whisker change • Piloerection Whether there is stiff hair or bristling even when stroked • Other (compared to reference values) • Temperature Take average of two readings • Weight Measure weight
(§1) Grip strength was evaluated by means of a measurement of grip strength called the grip test, using a muscle strength measuring device (Muromachi Kikai, MK-380S). Specifically, the mouse was made to grasp a mesh made of wire (wire mesh) with its front and back legs, and its tail was pulled back horizontally little by little until the mouse released the wire mesh. The maximum muscle strength at that time was measured.
The above model mice were given 307.2 mg/kg/day of L-carbocysteine in drinking water for 23 weeks starting at the age of 49 weeks, and frailty index test was performed as in Example 2-5 above to confirm age-related frailty and the like.

Data set [2] can be described thus: Body weight and behaviour observed during the administration period. Type of data set: in vivo, mouse. How it is done:
L-ethylcysteine hydrochloride was orally administered to aged mice from 40 to 79 weeks of age. The dose was 1000 mg/kg/day.
Ambroxol hydrochloride was orally administered to aged mice from 50 to 77 weeks of age. The dose was 9.21 mg/kg/day.

Data set [3] deals with gene expression in (gastrocnemius or soleus) muscle. The data set can be described thus: Genetic analysis (RNA-seq) of muscle of administered aged mice. It counts as in vivo, mouse. The conditions noted are these: FDR <0.05. From the text:
The procedure and reagents used are as follows. The quality of all reads was checked using FastQC v0.11.8 and low-quality reads were removed using Trimmomatic (ver 0.38). LEADING: 20 (cut bases off the start of a read if quality score is less than 20), TRAILING: 20, SLIDING WINDOW: 4:15 (window size 4, average quality 15), MINLEN: 36 (drop reads if the length is less than […]) Each read obtained after filtering was mapped to the reference genome GRCm38 using STAR (ver2.7.0.f). Mapping was performed using the default values of STAR. Since the reads were paired-end with a length of 150 bp, a STAR index for reference genome GRCm38 was created in accordance with the length of 150 to perform mapping. Index generation was performed as follows: • Run Mode; genomeGenerate • Reference; GRCm38 • Annotation file; genecode version M24 • sjdbOverhang; 150 • alignment was performed using the index generated above. • Other than the foregoing, no options were added and the default values were used. • (Basic options were as follows.) • genomeDir; index generated above […] At this time, gene symbols as defined in genecode version M24 were counted. Regarding the calculated count numbers, genes with count data of 0 in all samples were filtered, TMM normalization was performed using edgeR (ver3.22.3), and correction between samples was performed. First, to obtain an overview of the data, principal component analysis and clustering analysis were performed using the count data after removing low-expressing genes. Expression changes of the specified patterns were compared based on the obtained expression values. edgeR was used to test for differentially expressed genes. […] Gene enrichment analysis was performed on the obtained variable genes using gprofiler2 (version 0.1.6). The expression values of the obtained differentially expressed genes were normalized, then extracted and visually depicted as a heat map to confirm the differential expressions. […] This analysis was performed using […] 1.8.0). In […], analysis was performed using a mouse database relating to 10 kbp upstream the TSS, stored in […]. Details of the analysis are as follows (cited from https://scenic.aertslab.org/tutorials/[…]). In the present example, gene regulation involved in the ambroxol hydrochloride of the present invention was investigated using model mice to identify genes useful for the diagnosis and treatment of sarcopenia, in the same manner as in Example 1. […] From the analysis of upstream transcription factors shown in FIG. 12, new transcription factors involved in differentiation and cellular senescence were observed as upstream factors.

Data set [4] has as its system model mice (C57BL/6J). The data set can be described thus: Grip test with muscle strength measuring device (MK-380S). Type of data set: in vivo, mouse. The conditions noted are these: oral 1000 mg/kg/day from 50 to 81 weeks of age; FIG. 19. How it is done:
as §1

For data set [5], the system named is aged mice. The data set can be described thus: Contextual fear conditional (CFC) test of fear memory. It counts as in vivo, mouse. The conditions noted are these: 77-week-old aged mice after ambroxol hydrochloride administration; vs PBS; FIG. 8. How it is done: Cognition and memory of the 77-week-old aged mice of Example 2-2 were evaluated by means of a contextual fear conditional (CFC) test. In the cognition and memory experiment, memory is evaluated in two ways: fear memory and spatial memory; fear memory is evaluated based on the time the subject freezes and stops moving after receiving an electric shock. […] Regarding spatial memory, when a mouse is placed on a white disk and a strong light is illuminated thereon, the mouse, which is nocturnal, will try to escape to a dark place. The disk has 20 holes, of which 19 are blocked and only one through which escape is possible. The mouse is then trained for six days to memorize the location of that one hole. The degree to which the mouse could remember the location of the hole was evaluated one day later and one week later (reference: https://www.nature.com/protocolexchange/protocols/349Reiserer).
In this example, fear memory was evaluated using the CFC test. Fear memory was assessed by CFC after administration of ambroxol hydrochloride to 77-week-old, aged mice of Example 2-2.

Data set [6] relates to C2C12 cells. The data set can be described thus: Gene expression in cultured C2C12 cells, treated versus untreated. It counts as cell-based, mouse. The conditions noted are these: treated vs untreated cells; Q<0.05; FIG. 13. How it is done:
C2C12 cells, which are derived from striated muscle of mice, were cultured and treated with ambroxol hydrochloride.

Data set [7] concerns aged mice (C57BL/6J). Description: Treadmill test of muscle strength (endurance) in aged mice. It counts as in vivo, mouse. The conditions noted are these: vs PBS. From the text: To confirm that muscle strength decline would be observed in model mice (C57BL/6J) (purchased from ORIENTAL YEAST), muscle strength (endurance) in 79-week-old aged mice was checked in a treadmill test as follows.
Before recording performance, the mice were trained for three days so as to become familiarized with the equipment. An electrical stimulation grid was adjusted to 1 mA and the gradient was set to 15 degrees. On the first day of training, the mice were made to walk on the treadmill for 10 min at a speed of 10 m/min, rest for 10 min, and then walk for 10 min at a speed of 10 m/min. On the second and third days, the first two steps were performed under the same conditions as on the first day, after which walking was started at 10 m/min, and then increasing the speed by 1 m/min each minute up to a maximum speed of 20 m/min. Maximum exercise endurance was measured on the fourth day. Six mice were placed on the treadmill and the belt speed was started at 5 m/min for 5 min to warm up the mice. The speed was increased by 1 m/min to a maximum of 20 m/min. After 5 minutes of running, the speed was increased from 20 m/min to 21 m/min for 10 minutes. The mice were then forced to run at 22 m/min until they remained on the electrical stimulation grid for 10 seconds, and the distance they ran until they remained for 10 seconds was measured. […]

Data set [8] deals with aged mice. Description: Muscle mass in aged mice, with or without exercise. It counts as in vivo, mouse.
[9] abbreviates: mice administered ambroxol hydrochloride, FIG. 9.
Setting [10] is: aged mice administered L-ethylcysteine hydrochloride, FIG. 2.

As for `Nc1c(Br)cc(Br)cc1CNC1CCC(O)CC1` (stereo not shown) [Ambroxol hydrochloride, ambroxol hydrochloride], in data set [1] (oral 1000 mg/kg/day from 50 to 81 weeks of age), the “frailty index: coat condition” value was “improved”. In addition, the “frailty index: skin condition (hair, skin)” value in data set [1] (oral 1000 mg/kg/day from 50 to 81 weeks of age, FIG. 18) is “improved”. The “frailty index: osteoporosis (physical/musculoskeletal)” value in data set [1] (oral 1000 mg/kg/day from 50 to 81 weeks of age, FIG. 20) is recorded as “improved”. Moreover, in data set [2] (oral 9.21 mg/kg/day, 50 to 77 weeks of age), the “changes in body weight or behavioral abnormalities during administration” value is listed as “no significant changes in body weight or behavioral abnormalities”. For the same compound, in data set [3] (setting [9]), the “number of genes with decreased expression in muscle” value turned out to be 204 genes and the “number of genes with increased expression in muscle” value turned out to be 164 genes. Moreover, the “muscle strength (grip strength)” value in data set [4] was “improved”. Moreover, in data set [5], the “CFC Freezing scores / cognitive performance” value is “improved CFC Freezing scores and increased cognitive performance”. Further, in data set [6], the “number of genes with decreased expression in C2C12 cells” value came to 54 genes and the “number of genes with increased expression in C2C12 cells” value is reported as 53 genes. Besides, the “muscle strength (endurance) by treadmill test” value in data set [7] (oral 9.21 mg/kg/day from 50 to 77 weeks of age, measured at 77 weeks, FIG. 7) is “increase in muscle strength”.
Take `N[C@@H](CSCC(=O)O)C(=O)O` [L-carbocysteine]: the “frailty index: dermatitis” value in data set [1] (307.2 mg/kg/day in drinking water for 23 weeks from 49 weeks of age) is “improves”. Besides, the “frailty index: alopecia” value in data set [1] (307.2 mg/kg/day in drinking water for 23 weeks from 49 weeks of age, FIG. 22) is “improves”. In addition, in data set [1] (307.2 mg/kg/day in drinking water for 23 weeks from 49 weeks of age, FIG. 23), the “frailty index: fur color loss (gray hair)” value was “improves”. Moreover, the “frailty index: physical condition score (bone and muscle)” value in data set [1] (307.2 mg/kg/day in drinking water for 23 weeks from 49 weeks of age, FIG. 25) is “improvement in physical condition”. The “total score of the frailty index test” value in data set [1] (307.2 mg/kg/day in drinking water for 23 weeks from 49 weeks of age, FIG. 26) is listed as “improvement in the total value”.
Regarding `CCOC(=O)[C@@H](N)CS` [L-ethylcysteine hydrochloride], the “changes in body weight or behavioral abnormalities during administration” value in data set [2] (oral 1000 mg/kg/day, 40 to 79 weeks of age) is “no significant changes in body weight or behavioral abnormalities”. In addition, in data set [3] (setting [10]), the “number of genes with decreased expression in muscle” value worked out at 92 genes and the “number of genes with increased expression in muscle” value is 158 genes. Further, the “muscle mass in aged mice” value in data set [8] (administration alone) is reported as “increased muscle mass”. Also, in data set [8] (administration in combination with exercise), the “muscle mass in aged mice” value is recorded as “significantly restored muscle mass”. Further, the “muscle strength (endurance) by treadmill test” value in data set [7] (oral 1000 mg/kg/day from 40 to 79 weeks of age, measured at 79 weeks, FIG. 1) is given as “increase in muscle strength”.
